{
  "source": "patent US20230348418A1",
  "about": "“ISOINDOLINONE COMPOUNDS” (Monte Rosa Therapeutics, Inc., priority 2021, published 2023)",
  "key": {"GSPT1 [1]": {"molecular_target": "T1, GSPT1 (Homo sapiens, UniProt P15170+Q96SW2)", "T1 sequence (P15170 whole entry)": "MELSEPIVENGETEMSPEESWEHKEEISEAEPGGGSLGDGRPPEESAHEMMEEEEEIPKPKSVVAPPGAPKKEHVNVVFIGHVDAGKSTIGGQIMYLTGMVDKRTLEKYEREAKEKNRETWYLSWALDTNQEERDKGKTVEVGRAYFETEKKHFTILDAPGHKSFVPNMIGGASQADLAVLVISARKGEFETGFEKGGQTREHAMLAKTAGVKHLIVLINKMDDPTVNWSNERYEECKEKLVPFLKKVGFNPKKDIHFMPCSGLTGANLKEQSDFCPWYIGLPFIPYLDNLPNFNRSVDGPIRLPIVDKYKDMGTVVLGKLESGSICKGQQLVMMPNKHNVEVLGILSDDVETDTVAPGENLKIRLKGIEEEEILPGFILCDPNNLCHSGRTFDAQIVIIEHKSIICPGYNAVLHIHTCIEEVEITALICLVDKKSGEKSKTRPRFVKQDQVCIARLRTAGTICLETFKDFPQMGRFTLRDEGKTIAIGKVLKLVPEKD", "T1 sequence (Q96SW2 whole entry)": "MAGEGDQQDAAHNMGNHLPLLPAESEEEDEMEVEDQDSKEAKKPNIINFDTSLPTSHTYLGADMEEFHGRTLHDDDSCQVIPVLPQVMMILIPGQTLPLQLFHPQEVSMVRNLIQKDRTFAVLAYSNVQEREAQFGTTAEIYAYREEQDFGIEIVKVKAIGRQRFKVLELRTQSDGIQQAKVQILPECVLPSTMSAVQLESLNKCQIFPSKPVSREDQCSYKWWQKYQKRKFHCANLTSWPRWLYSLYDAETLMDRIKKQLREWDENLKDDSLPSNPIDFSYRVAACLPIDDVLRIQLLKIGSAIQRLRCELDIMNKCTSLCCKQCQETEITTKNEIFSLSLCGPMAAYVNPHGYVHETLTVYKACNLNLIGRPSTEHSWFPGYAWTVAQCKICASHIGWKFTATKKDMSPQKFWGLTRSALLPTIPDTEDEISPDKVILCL", "T1 sequence (Q16531 2-1140 partner limits assumed)": "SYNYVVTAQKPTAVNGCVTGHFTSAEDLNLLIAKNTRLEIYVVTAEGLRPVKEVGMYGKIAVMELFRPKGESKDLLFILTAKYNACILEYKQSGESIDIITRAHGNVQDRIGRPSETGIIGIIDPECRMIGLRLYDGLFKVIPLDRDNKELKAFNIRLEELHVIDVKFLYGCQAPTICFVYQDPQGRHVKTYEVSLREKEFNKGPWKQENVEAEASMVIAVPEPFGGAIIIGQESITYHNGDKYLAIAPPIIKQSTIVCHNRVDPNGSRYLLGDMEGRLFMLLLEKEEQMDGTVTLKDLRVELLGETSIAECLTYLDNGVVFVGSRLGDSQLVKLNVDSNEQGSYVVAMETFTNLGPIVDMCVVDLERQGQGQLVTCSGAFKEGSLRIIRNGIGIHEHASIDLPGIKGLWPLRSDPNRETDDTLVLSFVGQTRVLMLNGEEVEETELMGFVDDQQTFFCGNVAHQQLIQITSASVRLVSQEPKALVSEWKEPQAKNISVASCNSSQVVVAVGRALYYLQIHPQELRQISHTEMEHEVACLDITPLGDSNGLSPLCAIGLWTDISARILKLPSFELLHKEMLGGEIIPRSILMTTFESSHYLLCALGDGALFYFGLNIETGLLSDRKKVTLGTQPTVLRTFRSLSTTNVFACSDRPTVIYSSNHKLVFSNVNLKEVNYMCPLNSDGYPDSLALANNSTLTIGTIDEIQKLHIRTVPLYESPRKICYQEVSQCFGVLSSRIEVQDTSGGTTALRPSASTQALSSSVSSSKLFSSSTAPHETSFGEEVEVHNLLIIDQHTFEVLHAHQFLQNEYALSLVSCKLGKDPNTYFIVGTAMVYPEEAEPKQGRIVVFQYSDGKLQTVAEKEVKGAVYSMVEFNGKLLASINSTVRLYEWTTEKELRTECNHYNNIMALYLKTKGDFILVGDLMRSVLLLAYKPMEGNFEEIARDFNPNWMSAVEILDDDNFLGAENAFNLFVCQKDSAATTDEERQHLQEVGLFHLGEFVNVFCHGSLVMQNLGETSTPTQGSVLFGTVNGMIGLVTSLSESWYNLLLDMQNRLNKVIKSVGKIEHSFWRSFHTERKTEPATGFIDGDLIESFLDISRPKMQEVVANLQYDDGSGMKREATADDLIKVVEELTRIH", "assay": "GSPT1 degradation in NCI-H1155 cells", "type": "cell-based", "method": "GSPT1 was degraded by compound 10 after six hours of treatment in high N-Myc NCI-H1155 and ABC-1 cells with a DC50 of 3 nM and 22 nM, respectively (x-axys represents […]M concentration of compound 10; y-axis represents the viability in %)."}, "NCI-H1770": {"tested_on": "NCI-H1770", "assay": "N-Myc-driven mouse xenograft model, human cell line NCI-H1770 (FIG. 3C)", "type": "in vivo"}, "NCI-H526": {"tested_on": "NCI-H526", "assay": "N-Myc-driven mouse xenograft model, human cell line NCI-H526 (FIG. 3D)", "type": "in vivo"}, "GSPT1 [2]": {"molecular_target": "T1, GSPT1", "assay": "Quantitative proteomics analysis in ABC1 cells", "type": "cell-based", "settings": "100 nM, 6 hr", "method": "Quantitative Proteomics Analysis: ABC1 cells were treated with either DMSO (2 replicates) or compound 10 at 100 nM (2 replicates) for 6 hr. Proteins were extracted with the PreOmics iST-NHS lysis buffer (#P.O.00030). The samples were then processed using the PreOmics kit following their recommended protocol with minor modifications. In brief, the proteins were reduced, alkylated and digested for 2 h at 37° C. The peptides were then labelled with TMT reagent (1:4; peptide:TMT label) (Thermo Fisher Scientific). After quenching, the peptides were purified, and the 16 samples were combined to a 1:1 ratio. […] Eluted TMT peptides were analyzed on an Orbitrap Eclipse mass spectrometer (Thermo Fisher Scientific). […] Precursors were fragmented by CID at a normalized collision energy (NCE) of 35% and analyzed in the ion trap. Following MS2, synchronous precursor selection (SPS) MS3 scans were collected by using high energy collision-induced dissociation (HCD) and fragments were analyzed using the Orbitrap (NCE 55%, AGC target 1×10^5, maximum injection time 120 ms, resolution 60,000). Protein identification and quantification were performed using Proteome Discoverer 2.4.0.305 with the SEQUEST algorithm and Uniprot human database (2021-01-29, 20614 protein sequences). […] Protein relative quantification was performed using an in-house developed java notebook. […]"}, "[3]": {"tested_on": "NCI-H1155 cells (human non small cell lung cancer)", "assay": "NCI-H1155 xenograft study", "type": "in vivo, BALB/c nude mice", "method": "For the NCI-H1155 xenograft study, cells (human non small cell lung cancer, ATCC CRL-5818) were maintained in vitro as suspension culture in ATCC-formulated DMEM:F12 Medium supplemented as recommended by the provider and kept at 37° C. in an atmosphere of 5% CO2 in air. Cells (0.5 millions) were resuspended in 0.2 mL of PBS with Matrigel (50:50) and inoculated into female BALB/c nude mice, 6-8 weeks old, and allowed to grow to 150 mm^3 in size. Mice were dosed orally with either vehicle or compound 10 at 1 or 3 mg per kilogram daily (filled squares and filled triangles, respectively) or 6 mg per kilogram for 5 continuous days followed by 9 days treatment holidays (5 On-9 off) (filled inverted triangles). Compound formulations were prepared fresh daily in 5% vDMSO/95%(30% w/v HP-β-CD in water). Gemcitabine dosed at 40 mg per kilogram, IP, Q4Dx5 was used as a positive control (filled rhombi). For this study, mice were dosed for 21 days with tumor volumes measured every 3 days."}, "[4]": {"settings": "6 mg/kg PO, five days on and nine days off"}},
  "data": [
    {"smiles": "Cc1ccc(NC(=O)OCc2ccc3c(c2)C(=O)N(C2CCC(=O)NC2=O)C3)cc1Cl", "note": "(stereo not drawn) [Compound 10]", "values": [
      {"measurement": "extent of GSPT1 degradation", "setting": "GSPT1 [1]", "result": "complete degradation"},
      {"measurement": "tumor size (tumor volume)", "setting": "NCI-H1770; 3 mg/kg once daily, PO", "result": "tumor size decreased and remained so until the end of the study"},
      {"measurement": "tumor size (tumor volume)", "setting": "NCI-H1770; [4]", "result": "tumor size decreased and remained so until the end of the study"},
      {"measurement": "body weight", "setting": "NCI-H1770; oral administration, NCI-H1770 xenograft", "result": "no body weight loss observed"},
      {"measurement": "tumor growth (tumor volume)", "setting": "NCI-H1770; oral administration, NCI-H1770 xenograft, overall", "result": "tumor growth inhibition"},
      {"measurement": "tumor size (tumor volume)", "setting": "NCI-H526; 3 mg/kg once daily, PO", "result": "tumor size decreased and remained so until the end of the study"},
      {"measurement": "tumor size (tumor volume)", "setting": "NCI-H526; [4]", "result": "tumor size decreased and remained so until the end of the study"},
      {"measurement": "body weight", "setting": "NCI-H526; oral administration, NCI-H526 xenograft", "result": "no body weight loss observed"},
      {"measurement": "tumor growth (tumor volume)", "setting": "NCI-H526; oral administration, NCI-H526 xenograft, overall", "result": "tumor growth inhibition"},
      {"measurement": "Protein downregulation in mass spectrometry-based proteomics (FIG. 1B)", "setting": "GSPT1 [2]", "result": "GSPT1 was the most statistically significant downregulated protein"},
      {"measurement": "Tumor growth (FIG. 3A)", "setting": "[3]; 1 mg/kg once daily, oral", "result": "tumor growth was suppressed for two weeks"},
      {"measurement": "Tumor size (FIG. 3A)", "setting": "[3]; 3 mg/kg once daily, oral", "result": "tumor size decreased, became undetectable by day eight and remained so until the end of the study at day 21"},
      {"measurement": "Tumor size (FIG. 3A)", "setting": "[3]; 6 mg/kg dosed for five days on and nine days off, oral", "result": "tumor size decreased, became undetectable by day eight and remained so until the end of the study at day 21"},
      {"measurement": "body weight", "setting": "[3]; oral administration, NCI-H1155 xenograft mice", "result": "no body weight loss observed"},
      {"measurement": "Tumor growth (FIG. 3A)", "setting": "[3]; oral administration, all dose groups", "result": "tumor growth inhibition"}
    ]}
  ]
}
